Results reported in USRE43712E1, “Methods for assaying for antidepressant therapy markers” (The Board of Trustees of the Uniersity of Illinois, priority 2000, dated 2012).
“And” between values parts separate entries of the source, which are not always exact repeats. Identical values can stand only once. “Also recorded” adds a separate entry of the source. Marks after values point to notes of the source that are not given here.

Assays:
Gsα [1] = experiment: Detergent extraction of Gsα from rat synaptic membrane after chronic antidepressant treatment; type: in vivo; conditions: for GsαL in the Triton X-100 extract versus control / GsαL in the Triton X-114 extract versus control: rat synaptic membrane, 21 days treatment
Experimental: C6-2B cells (between passages 20 and 40) were grown in 175-cm^2 flasks in Dulbecco's modified Eagle medium, 4.5 g of glucose/L, 10% bovine serum, in a 10% CO2 atmosphere, at 37° C. for 3 days after splitting. […] Male Sprague-Dawley rats weighing 150-200 g were fed ad libitum and maintained in a 12-h light/dark cycle. […] 36:803-838, 1989]. […] Rat cerebral cortex membranes were prepared according to the method of Rasenick et al. [Nature, 294:560-562; 1981].
Membrane proteins were extracted sequentially from C6-2B or rat synaptic membranes as described [Yan et al., J. Neurochem., 66:1489-1495; 1996]. These membranes were stirred on ice in HEPES (15 mM, pH 7.4) containing 1% Triton X-100 for 60 min followed by centrifugation at 100,000 g for 60 min at 4° C. The supernatant was reserved (Triton X-100 extract), and the resulting pellet was resuspended in Tris (15 mM, pH 7.4) containing 1.4% Triton X-114 and 150 mM NaCl. The solution was stirred for 60 min at 4° C. and centrifuged for 30 min at 100,000 g in the cold. The supernatant was saved (Triton X-114 extract). These supernatants and remaining pellet (remainder) were subjected to sodium dodecyl sulfate (SDS)-polyacrylamide gel electophoresis (PAGE) using 10% gels. All of the extraction buffers contained 1 mM PMSF and 1 mM EGTA.
Rat cortex membrane, C6-2B cell membranes, or Triton extracts of each membrane preparation were subjected to SDS-PAGE followed by electrotransfer to polyvinylidene difluoride (PVDF) membrane. The PVDF membrane was incubated with a phosphate-buffered saline/Tween 20 Buffer (140 mM NaCl, […]. 0.1% Tween 20, pH 7.4) and 3% bovine serum albumin. The membrane was then incubated with polyclonal rabbit antisera against the various G protein subunits [RM (Gsα) or 116 (Gi1, Gi2, Gi3α)] at a 1:25,000 (RM) or 1:5,000 (116) dilution (see below for source of antibodies). […] Immunoreactivity was detected with an enhanced chemiluminescence (ECL) western blot detection system (Amersham) in accord with the manufacturer's instructions. The developed autoradiographs were analyzed by densitometry.
Rats were treated with antidepressant via intraperitoneal injection once daily for 21 days, control animals received an equal number and volume of injection of saline. Cerebral cortices from each group were removed. Rat synaptic membrane-enriched fractions were prepared (see Example 1). The ratios of the percentage of Gsα extracted by the two detergents in the treatment versus control groups were compared and are set forth in Table 3 as percentage of control (i.e., each Triton X-100 extract was compared with the untreated Triton X-100 extract, the same was comparison was undertaken for Triton X-114 extracts as well as the remainder). The values shown are means±standard error of the mean of 4-6 experiments.

Gsα [2] = experiment: Cellular localization of Gsα in C6-2B cells, immunofluorescence laser scanning confocal microscopy; type: cell-based; conditions: for Cells displaying intense Gsα staining at the process tips (and processes): control 64%
Experimental: C6-2B cells (between passages 30 and 50) were plated onto coverslips and allowed to attach overnight in Dulbecco's modified Eagle's medium. 4.5 g/l glucose, 10% bovine serum, and 100 μg/ml penicillin and streptomycin at 37° C. in a humidified 10% CO2 atmosphere. […] Therefore, the latter treatment paradigm was used in these experiments because it was easier to maintain the cell cultures for 3 days. […] The culture media and drug were changed daily. […] After the treatment duration, the cells were incubated in drug-free media for 45 to 60 minutes before fixation.
After treatment, cells were washed once with phosphate-buffered saline (PBS, […] NaCl, 2.6 mM KCl, 5.4 mM NaαPO4 7H2O, pH 7.4) and fixed with ice-cold methanol for 10 minutes. Cells were then washed three times with PBS followed by 2 h of blocking in 5% normal goat serum/0.2% fish skin gelatin in PBS. Primary antibody was added for 1.5 h, Gsα/RM1 (PerkinElmer Life Sciences, Boston, Mass.) 1:50 and Goα (Santa Cruz Biotechnology, Santa Cruz, Calif.) 2 μg/ml, followed by three washes with PBS. Oregon Green-labeled secondary antibody (Molecular Probes, Eugene, Oreg.) was added at a concentration of 8 μg/ml for 1 h followed by three PBS washes. The coverslips were mounted onto slides with Vectashield (Vector Laboratories. Burlingame, Calif.) containing diamidino-2-phenylindole as a mounting medium. Images were acquired using a Zeiss LSM510 laser-scanning confocal microscope (Carl Zeiss Inc., Thornwood, N.Y.). A single 488-nm beam from an argon/krypton laser was used for excitation of the Oregon Green. Differential interference contrast images were also acquired. Five experiments were performed and coverslips were examined. Approximately 2100 cells from control and desipramine-treated coverslips were counted by two investigators blind to the experimental conditions over the course of the five experiments.
The cellular distribution of Gsα was quantified in confocal imaged C6-2B cells using NIH-Image software (http://rsbinfonihpov/nih-image) as describe previously [Southwell et al., Cell Tissue Res., 292:37-45, 1998; Jenkinson et al., Br. J. Pharmacol., 126:131-136, 1999]. Images of 9×1 μm optical, planar sections taken from four randomly selected control and four randomly selected desipramine-treated cells were captured and the middle five sections from each cell were quantified. Total cellular Gsα fluorescence was measured by counting the number of pixels with intensity above threshold (determined by minimum intensity above background in this case 50 pixels). The areas of intensity were numbered and divided visually into those localized to the cell body and those localized to the processes and process tips. The total from each region was divided by the total cell pixel intensity and expressed as a percentage of the total. This was done for each section of each cell and the sections were averaged per cell to give an average percentage total per cell.
In a separate investigation, seven sets of 300 cells each from control group and desipramine-treated cells from five experiments were counted to determine the primary localization (processes and process tips or cell body) of Gsα within these cells. The majority of the cells stained positively for Gsα throughout the entire cell, but there was usually an enhancement in one of these regions. […] The counts are expressed as the ratio of process and process tip localization/cell body localization.
Studies were conducted to determine whether a shift in cellular localization of Gsα occurred in C6-2B cells subjected to antidepressants.
Twenty-one hundred cells from each group (control versus desipramine-treated) over a series of five experiments were examined to quantify the extent of the antidepressant effect. […] Abnormal cells or those not displaying processes were not included in the cell count. Cells (300-450) were counted per experiment and the ratio of category A cells to category B cells for each group is shown in FIG. 8. […]

[3] = rat cerebral cortex synaptic membrane, 10 mg/kg i.p. once daily for 21 days, mean ± SEM of 4-6 experiments
[4] = 10 μM desipramine 3 days, individual cells D1-D4

Compound | GsαL in Triton X-100 extract, % of corresponding value in control group (Gsα [1]; [3]) | GsαL in Triton X-114 extract, % of corresponding value in control group (Gsα [1]; [3]) | GsαS in Remainder, % of corresponding value in control group (Gsα [1]; [3]) | GsαS in Triton X-100 extract, % of corresponding value in control group (Gsα [1]; [3]) | GsαS in Triton X-114 extract, % of corresponding value in control group (Gsα [1]; [3]) | GsαL in the Triton X-100 extract versus control (Gsα [1]) | GsαL in the Triton X-114 extract versus control (Gsα [1]) | Decrease in Gsα localization to the processes and process tips, control versus treated cells (Gsα [2]; 10 μM desipramine 3 days) | Percentage of Gsα immunofluorescence distribution, Processes, Average (Gsα [2]; 10 μM desipramine 3 days, average of four cells, control 12.0 ± 5.7) [%] | Percentage of Gsα immunofluorescence distribution, Processes, Average (Gsα [2]; 10 μM desipramine 3 days, average of four cells, control 12.0 ± 5.7, listed as desipramine) [%] | Percentage of Gsα immunofluorescence distribution, Cell Body, Average (Gsα [2]; 10 μM desipramine 3 days, average of four cells, control 88.0 ± 5.7) [%] | Percentage of Gsα immunofluorescence distribution, Cell Body, single cells (Gsα [2]; [4]) | Percentage of Gsα immunofluorescence distribution, Processes, single cells (Gsα [2]; [4]) | Gsα immunofluorescence in cell processes and process tips (Gsα [2]; 10 μM, 3 days) | Gsα in the cell body (Gsα [2]; 10 μM, 3 days) | Cells displaying intense Gsα staining at the process tips (and processes) (Gsα [2]; 10 μM, 3 days) [%] | GsαL in Remainder, % of corresponding value in control group (Gsα [1]; [3])
CNCCCN1c2ccccc2CCc2ccccc21 [Desipramine, desipramine] | 128.2 ± 9.5^a % | 77.3 ± 8.8^a % | 84.9 ± 25.7% | 146.4 ± 9.6^b % | 71.7 ± 6.8^a % | significant increase | concomitant decrease | three-fold decrease | 4.1 ± 4.7 | 4 | 95.9 ± 4.7 | 91.4% and 92.2% and 100.0% (2×) | 8.6% and 7.8% and 0.0% (2×) | drastically reduced; also recorded: decrease in the cell processes and process tips | increase | 32 | 
CNCCC(Oc1ccc(C(F)(F)F)cc1)c1ccccc1 (centres unmarked) [Fluoxetine, fluoxetine] | 118.1 ± 3.4^a % | 81.9 ± 4.5^a % | 45.2 ± 8.4^a % | 153.8 ± 39.9% | 91.6 ± 6.3% | significant increase | concomitant decrease |  |  |  |  |  |  | loss of staining in the processes and process tips; also recorded: drastic reduction |  | 45 | 53.8 ± 6.9^a %
